Converted amounts (≈) assume the structure as drawn.
Tests used:
[1] = test system: RPMI8226 (multiple myeloma); experiment: Multiple myeloma cell growth inhibition, MTT, 72 h (Example 6); format: cell-based, human; settings: Homo sapiens, RPMI-8226; 72 h, MTT, RPMI8226
Outline: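 RPMI8226 cells (6000 per well) in RPMI 1640 with 10% FBS were exposed to a range of tetrandrine derivative concentrations for 72 h at 37 °C under 5% CO2. Viable cell concentration was then measured by MTT.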

[2] = test system: NB4 (acute promyelocytic leukemia, AML); experiment: Leukemia cell growth inhibition, MTT, 72 h (Example 5); format: cell-based, human; settings: Homo sapiens; 72 h, MTT
Outline: (§1)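 Growth inhibition by tetrandrine derivatives, dosed at several concentrations, was assessed via MTT after a 72-hour culture at 37° C.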

[3] = test system: Jurkat (acute lymphoblastic leukemia, ALL); experiment: as above; format: cell-based, human; settings: Homo sapiens, Jurkat; 72 h, MTT
Outline: as §1

[4] = test system: Kasumi-1 (acute myeloid leukemia M2 type, AML-M2); experiment: as above; format: cell-based, human; settings: Homo sapiens, Kasumi 1
Outline: as §1

[5] = test system: K562/adr (drug-resistant, chronic myeloid leukemia, CML); experiment: as above; format: cell-based, human; settings: Homo sapiens, K562/Adr; 72 h, MTT
Outline: as §1

[6] = test system: H9 (acute lymphoblastic leukemia, ALL); experiment: as above; format: cell-based, human; settings: Homo sapiens; 72 h, MTT
Outline: as §1

MG63 (osteosarcoma) = experiment: Solid tumor cell growth inhibition, MTT, 72 h (Example 7); format: cell-based, human; settings: Homo sapiens; 72 h, MTT, MG-63
Outline: (§2)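 A 72 h MTT assay: cells (4000/well, 24 h pre-culture in DMEM high glucose with 10% FBS at 37 °C, 5% CO2) were treated with graded concentrations of derivatives, and viability was calculated as % of untreated control.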

[7] = test system: PANC-1 (pancreatic cancer); experiment: as above; format: cell-based, human; settings: Homo sapiens; 72 h, MTT, PANC-1
Outline: as §2

[8] = test system: Hep-2 (laryngeal carcinoma); experiment: as above; format: cell-based, human; settings: Homo sapiens; 72 h, MTT, Hep 2
Outline: as §2

PC-3 (prostate cancer) = experiment: as above; format: cell-based, human; settings: Homo sapiens; 72 h, MTT, PC-3
Outline: as §2

[9] = test system: CaES-17 (esophageal cancer cell); experiment: as above; format: cell-based, human; settings: Homo sapiens, CaEs17; 72 h, MTT, CAES-17
Outline: as §2

[10] = test system: Hela (human cervical cancer cell); experiment: as above; format: cell-based; settings: Homo sapiens; 72 h, MTT, Hela
Outline: as §2

[11] = test system: U87 MG (malignant glioma cell); experiment: as above; format: cell-based; settings: Homo sapiens, U-87 MG
Outline: as §2

[12] = test system: Huh7 (human liver cancer cell); experiment: as above; format: cell-based; settings: Homo sapiens; 72 h, MTT, Huh-7
Outline: as §2

[13] = test system: RKO (human colon adenocarcinoma cell); experiment: as above; format: cell-based; settings: Homo sapiens; 72 h, MTT, RKO
Outline: as §2

[14] = test system: MGC 803 (human gastric cancer cell); experiment: as above; format: cell-based; settings: Homo sapiens
Outline: as §2

A549 (human lung cancer) = experiment: as above; format: cell-based; settings: Homo sapiens; 72 h, MTT, A549
Outline: as §2

[15] = test system: Becap37 (human breast cancer cell); experiment: as above; format: cell-based; settings: Homo sapiens; 72 h, MTT, Becap-37
Outline: as §2

[16] = test system: CNE (nasopharyngeal carcinoma cell); experiment: as above; format: cell-based; settings: Homo sapiens
Outline: as §2

[17] = test system: SK-OV-3 (ovarian cancer cell); experiment: as above; format: cell-based; settings: Homo sapiens
Outline: as §2

Row | IC50 [1] [µg/mL] | IC90 [1] [µg/mL] | IC50 [2] [µg/mL] | IC90 [2] [µg/mL] | IC50 [3] [µg/mL] | IC90 [3] [µg/mL] | IC50 [4] [µg/mL] | IC90 [4] [µg/mL] | IC50 [5] [µg/mL] | IC90 [5] [µg/mL] | IC50 [6] [µg/mL] | IC90 [6] [µg/mL] | IC50 (MG63 (osteosarcoma)) [µg/mL] | IC90 (MG63 (osteosarcoma)) [µg/mL] | IC50 [7] [µg/mL] | IC90 [7] [µg/mL] | IC50 [8] [µg/mL] | IC90 [8] [µg/mL] | IC50 (PC-3 (prostate cancer)) [µg/mL] | IC90 (PC-3 (prostate cancer)) [µg/mL] | other results | SMILES
1 | 0.11 (≈ 0.147 µM) | 2.43 (≈ 3.24 µM) | 0.63 (≈ 0.841 µM) | 2.17 (≈ 2.9 µM) | 1.41 (≈ 1.88 µM) | 5.41 (≈ 7.22 µM) | 1.24 (≈ 1.66 µM) | 3.2 (≈ 4.27 µM) | 0.79 (≈ 1.05 µM) | 2.4 (≈ 3.2 µM) | 1.54 (≈ 2.06 µM) | 2.21 (≈ 2.95 µM) | 0.49 (≈ 0.654 µM) | 0.62 (≈ 0.828 µM) | 1.62 (≈ 2.16 µM) | 4.58 (≈ 6.12 µM) | 3.37 (≈ 4.5 µM) | 7.54 (≈ 10.1 µM) | 3.4 (≈ 4.54 µM) | 5 (≈ 6.68 µM) | IC50 [9]: 1 µg/mL (≈ 1.34 µM); IC90 [9]: 9.26 µg/mL (≈ 12.4 µM); IC50 [10]: 1.55 µg/mL (≈ 2.07 µM); IC90 [10]: 5 µg/mL (≈ 6.68 µM); IC50 [11]: 1.11 µg/mL (≈ 1.48 µM); IC90 [11]: 2.02 µg/mL (≈ 2.7 µM); IC50 [12]: 1.3 µg/mL (≈ 1.74 µM); IC90 [12]: 1.67 µg/mL (≈ 2.23 µM); IC50 [13]: 0.51 µg/mL (≈ 0.681 µM); IC90 [13]: 0.91 µg/mL (≈ 1.22 µM); IC50 [14]: 1.26 µg/mL (≈ 1.68 µM); IC90 [14]: 1.88 µg/mL (≈ 2.51 µM); IC50 (A549 (human lung cancer)): 3.5 µg/mL (≈ 4.67 µM); IC90 (A549 (human lung cancer)): 10.5 µg/mL (≈ 14 µM); IC50 [15]: 1.63 µg/mL (≈ 2.18 µM); IC90 [15]: 3 µg/mL (≈ 4.01 µM); IC50 [16]: 0.94 µg/mL (≈ 1.26 µM); IC90 [16]: 2.59 µg/mL (≈ 3.46 µM); IC50 [17]: 2.19 µg/mL (≈ 2.92 µM); IC90 [17]: 4 µg/mL (≈ 5.34 µM) | COc1ccc2cc1Oc1ccc(cc1)C[C@H]1c3cc(c(OC)cc3CCN1C)Oc1c(OC)c(OC)c(CN3CCCN(C)CC3)c3c1[C@H](C2)N(C)CC3 [BS-TE-356]
2 | 0.52 (≈ 0.717 µM) | 2.81 (≈ 3.88 µM) | 1.7 (≈ 2.35 µM) | 5.5 (≈ 7.59 µM) | 1.57 (≈ 2.17 µM) | 9.9 (≈ 13.7 µM) | 1.33 (≈ 1.83 µM) | 6.67 (≈ 9.2 µM) | 1.44 (≈ 1.99 µM) | 5.38 (≈ 7.42 µM) | 1.38 (≈ 1.9 µM) | 3.41 (≈ 4.7 µM) | 2.49 (≈ 3.43 µM) | 6.36 (≈ 8.77 µM) | 2.73 (≈ 3.77 µM) | 16 (≈ 22.1 µM) | 2.4 (≈ 3.31 µM) | 6.87 (≈ 9.48 µM) | 3.32 (≈ 4.58 µM) | 6.95 (≈ 9.59 µM) | IC50 [9]: 3.94 µg/mL (≈ 5.44 µM); IC90 [9]: 16.4 µg/mL (≈ 22.7 µM); IC50 [10]: 1.07 µg/mL (≈ 1.48 µM); IC90 [10]: 2.89 µg/mL (≈ 3.99 µM); IC50 [11]: 2.86 µg/mL (≈ 3.95 µM); IC90 [11]: 6.66 µg/mL (≈ 9.19 µM); IC50 [12]: 2.31 µg/mL (≈ 3.19 µM); IC90 [12]: 3.43 µg/mL (≈ 4.73 µM); IC50 [13]: 0.89 µg/mL (≈ 1.23 µM); IC90 [13]: 1.99 µg/mL (≈ 2.75 µM); IC50 [14]: 2.87 µg/mL (≈ 3.96 µM); IC90 [14]: 8 µg/mL (≈ 11 µM); IC50 (A549 (human lung cancer)): 8.4 µg/mL (≈ 11.6 µM); IC90 (A549 (human lung cancer)): > 16 µg/mL; IC50 [15]: 3.5 µg/mL (≈ 4.83 µM); IC90 [15]: 10.8 µg/mL (≈ 14.9 µM); IC50 [16]: 1.6 µg/mL (≈ 2.21 µM); IC90 [16]: 3.49 µg/mL (≈ 4.81 µM); IC50 [17]: 7.1 µg/mL (≈ 9.79 µM); IC90 [17]: > 16 µg/mL | COCC(C)OCc1c2c3c(c(OC)c1OC)Oc1cc4c(cc1OC)CCN(C)[C@H]4Cc1ccc(cc1)Oc1cc(ccc1OC)C[C@@H]3N(C)CC2 (some centres unmarked) [BS-TE-406]
